Assays:
[1] = test system: MPTP-treated C57 black mice; test: MPTP-induced striatal dopamine depletion (HPLC-EC); type: in vivo
Description: (§1) Six to 8-week-old […] mice weighing 30 g were housed in standard conditions: constant temperature (22±1° C.), humidity (relative, 30%) and a 12-h light/dark cycle, and were allowed free access to food and water. The animals and protocol procedures were approved and supervised by the Committee on Animal Care (COAC) at the Iowa State University. Rottlerin was dissolved in 1% dimethyl sulfoxide (DMSO) and was administered intraperitoneally at various doses. An equal volume of DMSO was given to controls. Rottlerin and DMSO administrations were started 24 h before the injections of the MPTP and continued for 5 days in the MPTP model. In the chronic regimens of MPTP administration, MPTP in phosphate-buffered saline (PBS) was injected intraperitoneally at doses of 30 mg/kg, once a day. Mice were sacrificed 2 days after the MPTP injections, and the striata were dissected for catecholamine analysis. Additionally, rottlerin alone (0.3-20 mg/kg) was administered via intraperitoneally or orally and then brain tissues were subjected to neurochemical analyses (FIG. 8). The mesencephalons were fixed in 4% paraformaldehyde for 5 days for tyrosine hydroxylase (TH) immunostaining.
DA and DOPAC levels in brain striatal tissues were determined by high-performance liquid chromatography with electrochemical detection (HPLC-EC); samples were prepared as described previously (Kitazawa, Anantharam et al. 2001). Briefly, neurotransmitters were extracted from samples using 0.1M perchloric acid containing 0.05% Na2EDTA and 0.1% Na2S2O5. The extracts were filtered in 0.22 micron spin tubes and 20 μl of the samples was loaded for analysis. DA and DOPAC were separated isocratically by a reversed-phase column with a flow rate of 0.7 ml/min. An HPLC system (ESA Inc., Bedford, Mass.) with an ESA automatic sampler (model 542) was used for these experiments. The electrochemical detection (EC) system consisted of an ESA coulochem model 5100A with a microanalysis cell model 5014A and a guard cell model 5020 (ESA Inc., Bedford, Mass.). The DA and DOPAC levels were measured as pg/mg protein and expressed as percent of control.

[2] = test system: MPTP-treated C57 black mice; test: TH+ neuron count in substantia nigra pars compacta of MPTP mice (stereology); type: in vivo
Description: as §1
Brains removed following cervical dislocation were post-fixed in paraformaldehyde and used for TH immunolabelling and stereological studies. Fixed brains were cut into 30-μm sections and collected in cryoprotectant. Sections were rinsed in PBS at room temperature before immunostaining, then incubated with a anti-TH antibody as described (Thiruchelvam, McCormack et al. 2003; Thiruchelvam, Powers et al. 2004). The total number of TH^+ and TH Nissl-stained neurons in the SNpc were counted using the optical fractionator and previously described counting criteria (Thiruchelvam, McCormack et al. 2003; Thiruchelvam, Powers et al. 2004). After delineation of the region at low magnification (4× objective), every fourth section from the entire substantia nigra was sampled at higher magnification (100× objective) using StereoImager (Microbrightfield, Vt.).

[3] = test system: tyrosine hydroxylase (TH); test: TH-ser40 phosphorylation in primary mesencephalic neurons (immunofluorescence); type: cell-based, mouse; conditions: PKCδ (+/+) primary neuronal cultures, 3 μM rottlerin for 3 hr
Description: PC12 and N27 cells were cultured as described earlier (Anantharam et al., 2002; Kaul et al., 2003). Briefly, cells were grown in RPMI 1640 medium containing 10% fetal bovine serum, 2 mM L-glutamine, 50 units of penicillin, and 50 μg/ml streptomycin. Cells were maintained in a humidified atmosphere of 5% CO2 at 37° C. N27 cells were differentiated with 2 mM dibutyryl cAMP for 3-5 days and then used for experiments described below. Primary mesencephalic neuronal cultures were prepared from the ventral mesencephalon of gestational 16-18-day-old mice embryos as described previously (Yang et al., 2004). Mesencephalic tissues were dissected and maintained in ice-cold Ca^2+-free HESS and then dissociated in HBSS solution containing trypsin-EDTA (0.25%) for 20 min at 37° C. The dissociated cells were then plated at equal density (0.5×10^6 cells) in 30-mm-diameter tissue culture wells precoated with poly-L-lysine (1 mg/ml). […]
Plasmid pPKCδ^K376R-V5 encodes the loss of function PKCδ-V5 epitope tagged mutant protein; K376R refers to the mutation of the lysine residue at position 376 to arginine in the catalytic site resulting in inactivation of the kinase. […] Transfection efficiency was >75% as determined by immunostaining of V5-expression. […]

## CC(=O)c1c(O)c(C)c(O)c(Cc2c(O)c3c(c(C(=O)/C=C/c4ccccc4)c2O)OC(C)(C)C=C3)c1O [rottlerin]
[1]; 20 mg/kg rottlerin
  protection against dopamine loss induced by MPTP toxicity in striatum: 50%
[1]; oral 20 mg/kg and i.p. 3, 7 and 10 mg/kg rottlerin, dose-dependent
  MPTP-induced decrease in dopamine and metabolite levels: significantly antagonized
[1]; rottlerin 20 mg/kg + MPTP 30 mg/kg for 5 days
  dopamine level in striatum: 112.8±25.32 pg/mg tissue weight
[2]; cotreatment with 20 mg/kg rottlerin
  protective effect against SNpc cell loss: 37%
[2]; cotreatment with 20 mg/kg rottlerin and MPTP 30 mg/kg
  cell loss in SNpc: 13%
[3]
  TH-ser40 fluorescent intensity, increase: 4 fold
